Reference: US8669266B2, “Quinoline-carboxamide derivatives as P2Y12 antagonists” (Sanofi, priority 2007, dated 2014)

Tests used:
[1] = test system: human platelet rich plasma; assay: Inhibition of human platelet aggregation, 96-well assay (ADP-induced, platelet rich plasma); format: cell-based; conditions: 20 min, 96-well plate, human PRP, aggregation induced by ADP, AUC of absorbance over 20 minutes, 37° C.
Protocol: Alternatively to a binding assay which measures a compound's ability to bind to the P2Y12 receptor, the effect on cellular function was also determined. This ability of the compound was evaluated in two platelet aggregation assays: in 96-well plates and with the “Born”-method using single cuvettes.
Whole blood was collected from healthy volunteers using 20 ml syringes containing 2 ml of ACD-A Aqua-Citrat-Dextrose-A, Fresenius). The anticoagulated whole blood was transferred into 15 ml polypropylene conical tubes (10 ml per tube). The tubes were centrifuged for 15 minutes at 150×g at RT without using the centrifuge brake. This procedure leads to a pellet of cellular components and a supernatant of platelet rich plasma (PRP). The PRP layer was collected from each tube and pooled for each donor. To avoid carry over of cellular components following centrifugation, approximately 5 ml of PRP was left in the tube. The platelet concentration was determined using a Coulter Counter.
The 15 ml tubes containing the pellet of cellular components were centrifuged again for 10 minutes at 1940×g. This pelleted out most particulate blood constituents remaining, leaving a layer of Platelet Poor Plasma (PPP). The PPP was collected for each donor. The PRP layer, previously set aside, was diluted with PPP to a final concentration of approximately 3×E8 platelets/ml with the PPP.
The human platelet aggregation assay is performed in 96-well plates using a microtiter plate reader (SpectraMax Plus 384 with SoftMax Pro software from Molecular Devices).
In the plate 15 μl of test compound at 10× final concentration in NaCl is mixed with 120 μl fresh PRP and incubated for 5 minutes. Following that incubation period, 15 μl of 40 μM ADP is added to the reaction mix. This addition of ADP is sufficient to induce aggregation in the absence of an inhibitor. The plates are then transferred to the microplate reader and aggregation is measured over 20 minutes. The instrument settings include: Absorbance at 650 nm, run time 20 minutes with readings in 1-minute intervals and 50 seconds shaking between readings all performed at 37° C. Results of the assay are expressed as % inhibition, and are calculated using area under curve (AUC) of the absorbance over 20 minutes.

[2] = molecular target: human P2Y12 receptor (Homo sapiens (Human), UniProt Q9H244); assay: Human P2Y12 recombinant cell membrane binding assay with 33P 2MeS-ADP; conditions: CHO cell membranes with recombinant human P2Y12; competition against 33P 2MeS-ADP
Protocol: The ability of the compounds of the formula I to inhibit the P2Y12 receptor can be assessed by determining the concentration of the compound of the formula I that binds to the human P2Y12 Recombinant Cell Membrane Binding Assay with 33P 2MeS-ADP.
Human P2Y12 Recombinant Cell Membrane Binding Assay
The ability of a test compound to bind to the P2Y12 receptor was evaluated in a recombinant cell membrane binding assay. In this competitive binding assay, the test compound competed against a radiolabeled agonist for binding to the P2Y12 receptor, expressed on the cell membrane. Inhibition of binding of the labeled material was measured and correlated to the amount and potency of the test compound.
As source of P2Y12, a membrane preparation was prepared from Chinese Hamster Ovary (CHO) cells with recombinant expression of the human P2Y12 receptor according to standard procedures.
Next, wells were washed four times with 400 μl/well of stop buffer on a plate vacuum. The plate was disassembled and allowed to air dry overnight with the filter side up over night. […] The top of the filter plate was sealed with plastic plate covers. The sealed filter plate were incubated 2 hours at RT. A Microbeta Scintillation Counter was used to measure counts.
Compounds were diluted as 10 mM DMSO stocks and tested in a four-point, five-fold dilution series run in triplicate beginning at 10 μM, final concentration. Data were analyzed using a four-parameter curve fit with a fixed minimum and maximum experimentally defined as the average positive and negative controls on each plate.

Sequence of human P2Y12 receptor (Q9H244 whole entry): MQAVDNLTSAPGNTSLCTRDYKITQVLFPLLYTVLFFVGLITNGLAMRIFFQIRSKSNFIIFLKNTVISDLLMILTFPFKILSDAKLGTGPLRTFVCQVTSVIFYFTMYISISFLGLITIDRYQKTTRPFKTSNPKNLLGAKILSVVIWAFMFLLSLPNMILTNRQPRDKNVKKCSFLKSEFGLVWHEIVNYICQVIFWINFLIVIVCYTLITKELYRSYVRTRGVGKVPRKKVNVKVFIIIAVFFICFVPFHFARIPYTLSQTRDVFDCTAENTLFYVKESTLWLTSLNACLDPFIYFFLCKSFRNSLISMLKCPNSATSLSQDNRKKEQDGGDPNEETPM

| IC50 [1] [nM] | IC50 [2] [nM] | SMILES |
| --- | --- | --- |
| 180 |  | CCOC(=O)N1CCN(C(=O)[C@H](CCC(=O)O)NC(=O)c2cc(OCC(=O)N3CCC(O)CC3)c3ccc(C)cc3n2)CC1 [Example 10, 4-[(S)-4-Carboxy-2-({4-[2-(4-hydroxy-piperidin-1-yl)-2-oxo-ethoxy]-7-methyl-quinoline-2-carbonyl}-amino)-butyryl]-piperazine-1-carboxylic acid ethyl ester] |
| 30 |  | CCNC(=O)[C@@H]1CCCN1C(=O)COc1cc(C(=O)N[C@@H](CCC(=O)O)C(=O)N2CCN(C(=O)OCC)CC2)nc2cccc(F)c12 [Example 179, 4-[(S)-4-Carboxy-2-({4-[2-((S)-2-ethylcarbamoyl-pyrrolidin-1-yl)-2-oxo-ethoxy]-5-fluoro-quinoline-2-carbonyl}-amino)-butyryl]-piperazine-1-carboxylic acid ethyl ester] |
|  | 71 | CCOC(=O)N1CCN(C(=O)[C@H](CCC(=O)OCC2CCCC2)NC(=O)c2cc(OCC(=O)N3CCC[C@H]3C(=O)NC3CCC3)c3ccc(C)cc3n2)CC1 [Example 246, 4-[(S)-2-({4-[2-((S)-2-Cyclobutylcarbamoyl-pyrrolidin-1-yl)-2-oxo-ethoxy]-7-methyl-quinoline-2-carbonyl}-amino)-4-cyclopentylmethoxycarbonyl-butyryl]-piperazine-1-carboxylic acid ethyl ester] |
|  | 9 | CCOC(=O)N1CCN(C(=O)[C@H](CC(=O)O)NC(=O)c2cc(OCC(=O)N3CCC[C@H]3C(=O)NC3CCC3)c3cc(F)c(C)cc3n2)CC1 [Example 270, 4-[(S)-3-Carboxy-2-({4-[2-((S)-2-cyclobutylcarbamoyl-pyrrolidin-1-yl)-2-oxo-ethoxy]-6-fluoro-7-methyl-quinoline-2-carbonyl}-amino)-propionyl]-piperazine-1-carboxylic acid ethyl ester] |
|  | 12 | CCOC(=O)N1CCN(C(=O)[C@H](CCC(=O)O)NC(=O)c2cc(O[C@H](C)C(=O)N3CCC[C@H]3C(=O)N3CCCCC3)c3ccc(C)cc3n2)CC1 [Example 296, 4-{(S)-4-Carboxy-2-[(7-methyl-4-{(R)-1-methyl-2-oxo-2-[(S)-2-(piperidine-1-carbonyl)-pyrrolidin-1-yl]-ethoxy}-quinoline-2-carbonyl)-amino]-butyryl}-piperazine-1-carboxylic acid ethyl ester] |
|  | 5 | CCOC(=O)N1CCN(C(=O)[C@H](CCC(=O)O)NC(=O)c2cc(O[C@H](C)C(=O)N3CCC[C@H]3C(=O)NCC3CC3)c3ccc(C)cc3n2)CC1 [Example 300, 4-{(S)-4-Carboxy-2-[(4-{(R)-2-[(S)-2-(cyclopropylmethyl-carbamoyl)-pyrrolidin-1-yl]-1-methyl-2-oxo-ethoxy}-7-methyl-quinoline-2-carbonyl)-amino]-butyryl}-piperazine-1-carboxylic acid ethyl ester] |
| 60 |  | CCOC(=O)N1CCN(C(=O)[C@H](CCC(=O)O)NC(=O)c2cc(OCC(=O)N3CCC[C@H]3C(=O)NCC3CCC3)c3ccc(C)cc3n2)CC1 [Example 308, 4-{(S)-4-Carboxy-2-[(4-{2-[(S)-2-(cyclobutylmethyl-carbamoyl)-pyrrolidin-1-yl]-2-oxo-ethoxy}-7-methyl-quinoline-2-carbonyl)-amino]-butyryl}-piperazine-1-carboxylic acid ethyl ester] |
|  | 102 | CCOC(=O)N1CCN(C(=O)[C@H](CCC(=O)O)NC(=O)c2cc(OCC(=O)N3CCCC3c3ccccc3)c3ccccc3n2)CC1 (stereo partly drawn) [Example 334, 4-[(S)-4-Carboxy-2-({4-[2-oxo-2-(2-phenyl-pyrrolidin-1-yl)-ethoxy]-quinoline-2-carbonyl}-amino)-butyryl]-piperazine-1-carboxylic acid ethyl ester] |
|  | 33 | CCCCOC(=O)N1CC(NC(=O)[C@H](CCC(=O)O)NC(=O)c2cc(OCC(=O)N3CCC[C@H]3C(=O)NC3CCC3)c3ccccc3n2)C1 [Example 424, 3-[(S)-4-Carboxy-2-({4-[2-((S)-2-cyclobutylcarbamoyl-pyrrolidin-1-yl)-2-oxo-ethoxy]-quinoline-2-carbonyl}-amino)-butyrylamino]-azetidine-1-carboxylic acid butyl ester] |
| 73 |  | CCCCOC(=O)N1CCN(C(=O)[C@H](CCC(=O)O)NC(=O)c2cc(OCC(=O)N3CCC[C@H]3C#N)c3ccc(C)cc3n2)CC1 [Example 460, 4-[(S)-4-Carboxy-2-({4-[2-((S)-2-cyano-pyrrolidin-1-yl)-2-oxo-ethoxy]-7-methyl-quinoline-2-carbonyl}-amino)-butyryl]-piperazine-1-carboxylic acid butyl ester] |
| 65 |  | CCCCOC(=O)N1CCN(C(=O)[C@H](CCC(=O)O)NC(=O)c2cc(OCC(=O)N3CC(O)C3)c3ccc(C)cc3n2)CC1 [Example 472, 4-[(S)-4-Carboxy-2-({4-[2-(3-hydroxy-azetidin-1-yl)-2-oxo-ethoxy]-7-methyl-quinoline-2-carbonyl}-amino)-butyryl]-piperazine-1-carboxylic acid butyl ester] |
|  | 21 | CCCCOC(=O)N1CCN(C(=O)[C@H](CCC(=O)O)NC(=O)c2cc(OCC(=O)N3CCC[C@H]3C(=O)NC3CCC3)c3ccc(C)cc3c2)CC1 [Example 511, 4-[(S)-4-Carboxy-2-({4-[2-((S)-2-cyclobutylcarbamoyl-pyrrolidin-1-yl)-2-oxo-ethoxy]-7-methyl-naphthalene-2-carbonyl}-amino)-butyryl]-piperazine-1-carboxylic acid butyl ester] |
|  | 5 | CCCCOC(=O)N1CCN(C(=O)CNC(=O)c2cc(OCC(=O)N3CCC[C@H]3C(=O)NC3CCC3)c3ccccc3n2)CC1 [Example 673, 4-[2-({4-[2-((S)-2-Cyclobutylcarbamoyl-pyrrolidin-1-yl)-2-oxo-ethoxy]-quinoline-2-carbonyl}-amino)-acetyl]-piperazine-1-carboxylic acid butyl ester] |
|  | 3 | Cc1ccc2c(OCC(=O)N3CCC[C@H]3C(=O)NC3CCC3)cc(C(=O)NCC(=O)N3CCN(C(=O)OCCC(F)(F)F)CC3)nc2c1 [Example 679, 4-[2-({4-[2-((S)-2-Cyclobutylcarbamoyl-pyrrolidin-1-yl)-2-oxo-ethoxy]-7-methyl-quinoline-2-carbonyl}-amino)-acetyl]-piperazine-1-carboxylic acid 3,3,3-trifluoro-propyl ester] |
